Laboratory results published in ChEMBL document CHEMBL1201862, “PubChem BioAssay data set” (2004).
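Exposure lasted 48 hours, with cells grown in 96-well plates and compounds tested at five concentrations. At the GI50, growth is halved.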 The source made the active and inactive calls. Rule as the data show it: active = GI50 up to about 1.1 µM and inactive = higher.

Key:
Test in all cases: NCI tumour cell line growth inhibition, 48 h
[1] = system: A549
[2] = system: CAKI-1
[3] = system: DU-145
[4] = system: HT-29
[5] = system: Hs-578T
[6] = system: LOX IMVI
[7] = system: MOLT-4
[8] = system: NCI-H23
[9] = system: NCI-H460
[10] = system: NCI-H522
[11] = system: OVCAR-5
[12] = system: SF-268
[13] = system: SF-295
[14] = system: SF-539
[15] = system: SK-MEL-5
[16] = system: SNB-19
[17] = system: SR
[18] = system: SW-620
[19] = system: TK-10
[20] = system: UACC-62

SMILES | GI50 [1] | GI50 [2] | GI50 [3] | GI50 [4] | GI50 [5] | GI50 [6] | GI50 [7] | GI50 [8] | GI50 [9] | GI50 [10] | GI50 [11] | GI50 [12] | GI50 [13] | GI50 [14] | GI50 [15] | GI50 [16] | GI50 [17] | GI50 [18] | GI50 [19] | GI50 [20]
CCOC(=O)c1c2c(n3ccccc13)C(=O)c1ccccc1C2=O | 3.82 µM (inactive) | > 100 µM (inactive) | > 100 µM (inactive) | > 100 µM (inactive) | 19.7 µM (inactive) | > 100 µM (inactive) | > 100 µM (inactive) | 42.2 µM (inactive) | 3.52 µM (inactive) | > 100 µM (inactive) | > 100 µM (inactive) | 31.3 µM (inactive) | > 100 µM (inactive) | 36.7 µM (inactive) | 10.7 µM (inactive) | 80 µM (inactive) | > 100 µM (inactive) | > 100 µM (inactive) | 83.4 µM (inactive) | 67.9 µM (inactive)
c1ccc([P+](c2ccccc2)(c2ccccc2)c2ccc([P+](c3ccccc3)(c3ccccc3)c3ccccc3)cc2)cc1 | 64.9 µM (inactive) | > 100 µM (inactive) | 52.8 µM (inactive) | 45.8 µM (inactive) | 31.6 µM (inactive) | 34.3 µM (inactive) | 24.7 µM (inactive) | 39.9 µM (inactive) | 43.5 µM (inactive) | 37.1 µM (inactive) | 88.5 µM (inactive) | 57.4 µM (inactive) | > 100 µM (inactive) | 24.8 µM (inactive) | 41 µM (inactive) | 54.1 µM (inactive) | 0.0815 µM (active) | > 100 µM (inactive) | 60.7 µM (inactive) | 71.6 µM (inactive)
CC[C@@]1(O)C(=O)OCc2c1cc1n(c2=O)Cc2c-1nc1ccc(N)cc1c2CC[Si](C)(C)C | < 0.01 µM (active) | < 0.01 µM (active) | < 0.01 µM (active) | < 0.01 µM (active) | 0.134 µM (active) | < 0.01 µM (active) | < 0.01 µM (active) | < 0.01 µM (active) | < 0.01 µM (active) | < 0.01 µM (active) | < 0.0223 µM (active) | < 0.01 µM (active) | < 0.01 µM (active) | < 0.01 µM (active) | < 0.01 µM (active) | < 0.01 µM (active) | < 0.01 µM (active) | < 0.01 µM (active) | 0.051 µM (active) | < 0.01 µM (active)
